Laboratory results: ChEMBL document CHEMBL5550171, “Poly (ADP-ribose) polymerase (PARP) inhibitors as anticancer agents: An outlook on clinical progress, synthetic strategies, biological activity, and structure-activity relationship” (Eur J Med Chem, 2024)

Columns and labels:
MDA-MB-436 [1] = assay: Antiproliferative activity against human MDA-MB-436 cells assessed as reduction in cell viability incubated for 72 hrs by MTT assay; assay type: functional, cell-based; settings: MDA-MB-436, 72 h
[2] = molecular target: T1, Poly [ADP-ribose] polymerase 1 (Homo sapiens, UniProt P09874); assay: Inhibition of human recombinant PARP-1 by ELISA assay
[3] = molecular target: Poly [ADP-ribose] polymerase 2 (Homo sapiens, UniProt Q9UGN5); assay: Inhibition of PARP2 (unknown origin)
[4] = molecular target: T1, Poly [ADP-ribose] polymerase 1; assay: Inhibition of PARP1 (unknown origin)
HCT-116 [5] = assay: Antiproliferative activity against human HCT-116 cells assessed as reduction in cell growth; assay type: functional, cell-based
MCF7 [6] = assay: Antiproliferative activity against human MCF7 cells assessed as reduction in cell growth; assay type: functional, cell-based
SK-OV-3 [7] = assay: Antiproliferative activity against human SK-OV-3 cells assessed as reduction in cell growth; assay type: functional, cell-based
MDA-MB-231 [8] = assay: Antiproliferative activity against human MDA-MB-231 cells assessed as reduction in cell growth; assay type: functional, cell-based
SK-OV-3 [9] = assay: Inhibition of colony formation in human SK-OV-3 cells at 10 uM by crystal violet staining assay; assay type: functional
A2780 = assay: Antiproliferative activity against human A2780 cells assessed as reduction in cell growth; assay type: functional, cell-based
[10] = molecular target: T1, Poly [ADP-ribose] polymerase 1; assay: Inhibition of human recombinant PARP1 expressed in Escherichia coli BL21(DE3)
MDA-MB-436 [11] = assay: Antiproliferative activity against human MDA-MB-436 cells; assay type: functional, cell-based
MCF7 [12] = assay: Cytotoxicity against human MCF7 cells assessed as reduction in cell growth incubated for 72 hrs by alamar blue reagent based analysis; assay type: functional; settings: MCF7, 72 h
MDA-MB-231 [13] = assay: Cytotoxicity against human MDA-MB-231 cells assessed as reduction in cell growth incubated for 72 hrs by alamar blue reagent based analysis; assay type: functional; settings: MDA-MB-231, 72 h
SNB-75 = assay: Growth inhibition of human SNB-75 cells; assay type: functional
MCF7 [14] = assay: Antiproliferative activity against human MCF7 cells assessed as reduction in cell viability at 10 uM incubated for […] by MTT assay; assay type: functional
NCI-H226 = assay: Growth inhibition of human NCI-H226 cells; assay type: functional
MCF7 [15] = assay: Antiproliferative activity against human MCF7 cells assessed as reduction in cell viability at 10 uM incubated for 24 hrs by MTT assay; assay type: functional
HCT-116 [16] = assay: Antiproliferative activity against human HCT-116 cells assessed as reduction in cell viability incubated for 72 hrs by MTT assay; assay type: functional, cell-based; settings: HCT-116, 72 h
MCF7 [17] = assay: Antiproliferative activity against human MCF7 cells assessed as reduction in cell viability incubated for 72 hrs by MTT assay; assay type: functional, cell-based; settings: MCF7, 72 h
IGROV-1 = assay: Growth inhibition of human IGROV-1 cells; assay type: functional
[18] = Cytotoxicity against mouse BALB/3T3 cells assessed as reduction in cell viability incubated for 72 hrs by MTT assay; assay type: toxicity, cell-based
MDA-MB-468 = assay: Growth inhibition of human MDA-MB-468 cells; assay type: functional
MCF7 [19] = assay: Antiproliferative activity against human MCF7 cells assessed as reduction in cell viability at 10 uM incubated for 48 hrs by MTT assay; assay type: functional
HCT-116 [20] = assay: Growth inhibition of human HCT-116 cells; assay type: functional
LOX IMVI = assay: Growth inhibition of human LOX IMVI cells; assay type: functional
A549 = assay: Antiproliferative activity against human A549 cells assessed as reduction in cell viability incubated for 72 hrs by MTT assay; assay type: functional, cell-based; settings: A549, 72 h
KB 3-1 = assay: Antiproliferative activity against human KB 3-1 cells assessed as reduction in cell viability incubated for 72 hrs by MTT assay; assay type: functional, cell-based; settings: KB 3-1, 72 h
Jurkat = assay: Antiproliferative activity against human Jurkat cells assessed as reduction in cell viability incubated for 72 hrs by MTT assay; assay type: functional, cell-based
RPMI-8226 = assay: Growth inhibition of human RPMI-8226 cells; assay type: functional
SK-OV-3 [21] = assay: Antiproliferative activity against human SK-OV-3 cells assessed as reduction in cell viability incubated for 72 hrs by MTT assay; assay type: functional, cell-based; settings: SK-OV-3, 72 h
MCF7 [22] = assay: Cytotoxicity against human MCF7 cells harbouring BRCA1 assessed as inhibition of cell growth measured after 72 hrs by MTT assay; assay type: functional, cell-based; settings: MCF7, 72 h
MCF7 [23] = assay: Antiproliferative activity against human MCF7 cells assessed as reduction in cell growth measured after 72 hrs by MTT assay; assay type: functional, cell-based; settings: MCF7, 72 h
[24] = molecular target: Protein mono-ADP-ribosyltransferase PARP3 (Homo sapiens, UniProt Q9Y6F1); assay: Inhibition of PARP3 (unknown origin)
MDA-MB-231 [25] = assay: Cytotoxicity against human MDA-MB-231 cells assessed as reduction in cell viability measured for 48 hrs by MTT assay; assay type: functional, cell-based; settings: MDA-MB-231, 48 h
MCF7 [26] = assay: Cytotoxicity against human MCF7 cells assessed as reduction in cell viability measured for 48 hrs by MTT assay; assay type: functional, cell-based; settings: MCF7, 48 h
[27] = molecular target: T1, Poly [ADP-ribose] polymerase 1; assay: Inhibition of human recombinant PARP1 at 100 uM relative to control
[28] = molecular target: T1, Poly [ADP-ribose] polymerase 1; assay: Inhibition of human recombinant PARP1 at 1 uM relative to control
[29] = molecular target: T1, Poly [ADP-ribose] polymerase 1; assay: Inhibition of human recombinant PARP1 at 10 uM relative to control
[30] = molecular target: T1, Poly [ADP-ribose] polymerase 1; assay: Inhibition of human recombinant PARP1 at 0.1 uM relative to control
[31] = Antiproliferative activity against human MCF10A cells assessed as inhibition of cell growth incubated for 72 hrs by alamar blue assay; assay type: functional, cell-based; settings: MCF10AT1, 72 h
[32] = molecular target: T1, Poly [ADP-ribose] polymerase 1; assay: Inhibition of human recombinant PARP1 at 0.01 uM relative to control
MDA-MB-157 = assay: Anticancer activity against human MDA-MB-157 cells assessed as cell growth inhibition; assay type: functional, cell-based
HCC1395 = assay: Anticancer activity against human HCC1395 cells assessed as cell growth inhibition; assay type: functional, cell-based
MDA-MB-436 [33] = assay: Antiproliferative activity against human MDA-MB-436 cells assessed as reduction in cell viability; assay type: functional, cell-based
[34] = Cytotoxicity against human WI-38 cells assessed as reduction in cell viability incubated for 48 hrs by MTT assay; assay type: toxicity, cell-based
[35] = molecular target: T1, Poly [ADP-ribose] polymerase 1; assay: Inhibition of human PARP1

T1 sequence (P09874 whole entry): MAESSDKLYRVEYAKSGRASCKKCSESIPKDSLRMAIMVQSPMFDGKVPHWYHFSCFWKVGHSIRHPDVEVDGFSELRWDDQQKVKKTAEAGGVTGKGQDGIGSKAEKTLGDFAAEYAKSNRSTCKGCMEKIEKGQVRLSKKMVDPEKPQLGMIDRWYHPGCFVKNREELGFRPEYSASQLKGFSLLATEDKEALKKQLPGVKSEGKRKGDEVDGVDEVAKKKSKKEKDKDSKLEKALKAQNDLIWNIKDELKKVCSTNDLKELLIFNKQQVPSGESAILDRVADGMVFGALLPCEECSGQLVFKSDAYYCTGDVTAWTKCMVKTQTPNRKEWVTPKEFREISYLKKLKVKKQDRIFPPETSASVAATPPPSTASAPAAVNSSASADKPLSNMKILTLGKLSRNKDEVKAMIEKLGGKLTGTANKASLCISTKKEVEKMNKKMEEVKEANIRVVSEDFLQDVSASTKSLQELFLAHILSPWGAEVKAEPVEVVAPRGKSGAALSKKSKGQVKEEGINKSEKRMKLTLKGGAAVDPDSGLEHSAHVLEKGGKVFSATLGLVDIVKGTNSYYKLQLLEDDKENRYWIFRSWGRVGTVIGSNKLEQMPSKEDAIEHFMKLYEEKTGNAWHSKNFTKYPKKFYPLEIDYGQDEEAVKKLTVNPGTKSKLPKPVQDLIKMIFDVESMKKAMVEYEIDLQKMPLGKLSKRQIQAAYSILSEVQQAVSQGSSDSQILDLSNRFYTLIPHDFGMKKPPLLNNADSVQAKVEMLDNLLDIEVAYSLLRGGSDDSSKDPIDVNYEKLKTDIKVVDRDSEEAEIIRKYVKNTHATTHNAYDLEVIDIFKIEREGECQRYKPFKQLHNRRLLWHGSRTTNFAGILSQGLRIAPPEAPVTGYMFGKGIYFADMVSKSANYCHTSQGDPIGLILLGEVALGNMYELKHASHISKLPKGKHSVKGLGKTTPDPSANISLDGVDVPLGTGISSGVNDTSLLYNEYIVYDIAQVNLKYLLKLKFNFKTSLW
Protein mono-ADP-ribosyltransferase PARP3, sequence (Q9Y6F1 whole entry): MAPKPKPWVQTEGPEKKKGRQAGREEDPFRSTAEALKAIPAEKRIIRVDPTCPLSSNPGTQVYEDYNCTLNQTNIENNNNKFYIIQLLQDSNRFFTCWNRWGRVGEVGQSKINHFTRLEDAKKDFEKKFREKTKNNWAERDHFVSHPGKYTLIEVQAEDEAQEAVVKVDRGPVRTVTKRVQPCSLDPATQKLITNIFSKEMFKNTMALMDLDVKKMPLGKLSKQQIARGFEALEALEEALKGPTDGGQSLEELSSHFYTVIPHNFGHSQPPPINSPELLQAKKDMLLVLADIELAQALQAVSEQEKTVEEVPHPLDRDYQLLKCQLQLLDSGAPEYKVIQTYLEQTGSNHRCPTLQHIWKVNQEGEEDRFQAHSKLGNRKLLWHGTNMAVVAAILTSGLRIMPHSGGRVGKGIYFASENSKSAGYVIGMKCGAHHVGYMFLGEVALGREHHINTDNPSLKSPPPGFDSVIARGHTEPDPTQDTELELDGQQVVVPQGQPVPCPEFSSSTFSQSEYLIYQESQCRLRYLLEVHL
Poly [ADP-ribose] polymerase 2, sequence (Q9UGN5 whole entry): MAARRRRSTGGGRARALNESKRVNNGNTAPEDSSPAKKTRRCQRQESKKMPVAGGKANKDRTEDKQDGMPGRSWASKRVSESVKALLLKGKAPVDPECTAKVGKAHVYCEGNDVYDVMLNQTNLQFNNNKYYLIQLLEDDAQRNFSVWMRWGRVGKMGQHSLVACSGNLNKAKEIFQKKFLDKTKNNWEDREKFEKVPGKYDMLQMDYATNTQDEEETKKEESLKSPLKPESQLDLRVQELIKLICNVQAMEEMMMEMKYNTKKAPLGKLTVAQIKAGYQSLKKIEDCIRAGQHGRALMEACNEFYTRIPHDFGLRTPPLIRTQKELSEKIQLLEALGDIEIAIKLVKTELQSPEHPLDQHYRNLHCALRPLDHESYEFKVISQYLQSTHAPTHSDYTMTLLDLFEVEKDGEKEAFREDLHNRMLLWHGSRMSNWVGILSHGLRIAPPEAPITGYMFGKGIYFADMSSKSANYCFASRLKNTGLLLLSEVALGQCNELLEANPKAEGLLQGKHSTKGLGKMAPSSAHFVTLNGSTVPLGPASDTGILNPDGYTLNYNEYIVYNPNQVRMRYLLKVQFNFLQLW

Structure (SMILES): NC(=O)c1cccc2[nH]c(-c3ccc(C(=O)N4CCN(C(=O)c5ccc(Br)o5)CC4)cc3)nc12
- IC50 (MDA-MB-436 [1]): 43.6 µM
- IC50 [2]: 0.023 µM

Structure (SMILES): O=C1N[C@H](C2CC2)[C@@H](C(=O)N2CCC(N3CCCCC3)CC2)c2ccc(F)cc21
- IC50 [3]: 4.3 µM
- IC50 [4]: 22 µM

Structure (SMILES): CCNC(=S)N/N=C\c1ccc(-c2nc3c(oc4ccccc43)c(=O)[nH]2)cc1
- IC50 (HCT-116 [5]): 8.75 µM
- IC50 (MCF7 [6]): 38.1 µM
- IC50 (SK-OV-3 [7]): 4.98 µM
- IC50 (MDA-MB-231 [8]): 47.6 µM
- inhibition at 10 µM (SK-OV-3 [9]): 78.1%
- IC50 (A2780): 24.8 µM

Structure (SMILES): NC(=O)c1cccc2[nH]c(-c3ccc(C(=O)NC4CCN(C(=O)c5ccc(Cl)o5)C4)cc3)nc12 (stereo not drawn)
- IC50 [10]: 0.00865 µM

Structure (SMILES): NC(=O)c1cccc2[nH]c(-c3ccc(C(=O)N4CCN(C(=O)c5ccc(Cl)o5)CC4)cc3)nc12
- IC50 (MDA-MB-436 [1]): 36.7 µM
- IC50 [2]: 0.043 µM

Structure (SMILES): O=C(c1cc(Cc2n[nH]c(=O)c3ccccc23)ccc1F)N1CCN(C(=O)C2CC2)CC1 [OLAPARIB]
- IC50 (MDA-MB-436 [11]): 8.9 µM
- IC50 (MCF7 [12]): 3.2 µM
- IC50 (MDA-MB-231 [13]): 70.2 µM

Structure (SMILES): CCOC(=O)c1ccc(NC(=O)CS/C(=C\C(=O)c2sc(Nc3ccccn3)nc2C)c2ccccc2F)cc1
- GI50 (SNB-75): 3.58 µM
- Activity (MCF7 [14]): 90%
- GI50 (NCI-H226): 2.52 µM
- Activity (MCF7 [15]): 19.9%
- IC50 (HCT-116 [16]): 6.11 µM
- IC50 (MCF7 [17]): 2.79 µM
- GI50 (IGROV-1): 12.1 µM
- IC50 at 72 h [18]: 7.79 µM
- IC50 [3]: 0.72 µM
- GI50 (MDA-MB-468): 4.24 µM
- Activity (MCF7 [19]): 43%
- GI50 (HCT-116 [20]): 23 µM
- IC50 [4]: 2.28 µM
- GI50 (LOX IMVI): 0.312 µM
- IC50 (A549): 8.05 µM
- IC50 (KB 3-1): 7.63 µM
- IC50 (Jurkat): 5.36 µM
- GI50 (RPMI-8226): 8.29 µM
- IC50 (SK-OV-3 [21]): 7.87 µM
- IC50 (MCF7 [22]): 0.7 µM

Structure (SMILES): O=C(Cn1c(=S)n(-c2ccccc2)c(=O)c2ccccc21)Nc1ccc2c(c1)C(=O)c1ccccc1C2
- IC50 [4]: 0.17 µM
- IC50 (MCF7 [23]): 11.4 µM

Structure (SMILES): CCN(CC)CCC(=O)Nc1ccc(-c2nc3cc(Cl)ccc3o2)cc1
- IC50 [24]: 0.057 µM

Structure (SMILES): O=C(CCN1CCOCC1)Nc1ccc(-c2nc3cc(Cl)ccc3o2)cc1
- IC50 (MDA-MB-231 [25]): 6.14 µM
- IC50 (MCF7 [26]): 6.05 µM
- IC50 [24]: 0.07 µM

Structure (SMILES): COc1ccc(CSc2nccc(OCC(=O)N3CCN(c4ccc(C)cc4)CC3)n2)cc1
- inhibition [27]: 85.8%
- inhibition [28]: 29.8%
- inhibition [29]: 70.3%
- inhibition [30]: 15.6%
- IC50 [31]: 46.9 µM
- inhibition [32]: 0.5%

Structure (SMILES): O=C(Cn1c(=S)n(-c2ccccc2)c(=O)c2ccccc21)Nc1cccc2ccccc12
- IC50 [4]: 0.14 µM
- IC50 (MCF7 [23]): 10.6 µM

Structure (SMILES): Cn1ncnc1[C@H]1c2n[nH]c(=O)c3cc(F)cc(c23)N[C@@H]1c1ccc(F)cc1 [TALAZOPARIB]
- IC50 (MDA-MB-157): 0.00037 µM
- IC50 (HCC1395): 0.00046 µM

Structure (SMILES): COc1ccc(Cc2nnc(-c3cccc(-c4ccnc(F)c4C)c3)o2)cc1OC
- IC50 (MCF7 [12]): 15.3 µM
- IC50 (MDA-MB-231 [13]): 19.2 µM

Structure (SMILES): Cc1ccoc1C(=O)N1CCCN(C(=O)c2ccc(-c3nc4c(C(N)=O)cccc4[nH]3)cc2)CC1
- IC50 (MDA-MB-436 [33]): 25.4 µM

Structure (SMILES): Cc1cc(C)n(S(=O)(=O)c2ccc3[nH]c(=O)c(=O)[nH]c3c2)n1
- IC50 at 48 h [34]: 81.7 µM
- IC50 (MDA-MB-436 [11]): 2.57 µM
- IC50 [35]: 0.0044 µM
